In brackets after ≈: the same amount, converted by molar mass. Several values for one entry are separate records, joined by “and”; a condition that tells them apart may be missing. Equal values may be shown once. Read-outs that look alike come from different tables or passages of the source.
How the values were obtained:
E. coli (sensitive) = assay: In vitro activity (geometric mean MIC, serial dilution); assay type: cell-based; settings: Escherichia coli, read-out: Geometric Mean MIC
Enterobacter (sensitive) = assay: as above; assay type: cell-based; settings: 3 strains, Mueller-Hinton agar, inoculum 10^4 dilution, MIC cutoff 200 mcg./ml., read-out: Geometric Mean MIC
[1] = system: S. aureus penicillinase+); assay: as above; assay type: cell-based; settings: Staphylococcus aureus, read-out: Geometric Mean MIC
rabbits = assay: Preliminary nephrotoxicity study; assay type: in vivo; settings: two rabbits, 100 mg./kg. intravenously
Method: A preliminary nephrotoxicity study was carried out by administration of the test compound to a group of two rabbits at 100 mg./kg. intravenously.

S. aureus (sensitive) = assay: In vitro activity (geometric mean MIC, serial dilution); assay type: cell-based; settings: Staphylococcus aureus, read-out: Geometric Mean MIC
[2] = system: Proteus (indole +, cephalosporinase +); assay: as above; assay type: cell-based; settings: 5 strains; Mueller-Hinton agar, inoculum 10^4 dilution; MIC cutoff 200 mcg./ml.; read-out: Geometric Mean MIC
Proteus (indole-) = assay: as above; assay type: cell-based; settings: read-out: Geometric Mean MIC
[3] = system: E. coli (Penicillinase +); assay: as above; assay type: cell-based; settings: Escherichia coli; 7 strains; Mueller-Hinton agar, inoculum 10^4 dilution; MIC cutoff 200 mcg./ml.; read-out: Geometric Mean MIC
Providencia sp. = assay: as above; assay type: cell-based; settings: 5 strains, Mueller-Hinton agar, inoculum 10^4 dilution, MIC cutoff 200 mcg./ml., read-out: Geometric Mean MIC
Proteus (indole +) = assay: as above; assay type: cell-based; settings: read-out: Geometric Mean MIC
[4] = system: S. aureus (Methicillin-R); assay: as above; assay type: cell-based; settings: Staphylococcus aureus; 15 strains; Mueller-Hinton agar, inoculum 10^4 dilution; MIC cutoff 200 mcg./ml.
S. aureus Smith = assay: In vivo activity (Mice, sc); settings: several determinations listed; for ED50: Staphylococcus aureus, read-out: PD50
From the text: (§1) |In vivo Activity of BB-[…] and Related Compounds (Mice, sc) | (PD50 (mgm./kg.)

E. coli Juhl = assay: In vivo activity (Mice, sc); settings: several determinations listed; for ED50: Escherichia coli, read-out: PD50
From the text: as §1

[5] = system: Miscellaneous (Salmonella, Shigella, Citrobacter); assay: microbe, parasite or virus in culture; settings: read-out: Geometric Mean MIC
S. pyogenes = assay: In vitro activity (geometric mean MIC, serial dilution); assay type: cell-based; settings: Streptococcus pyogenes; 10 strains; Mueller-Hinton agar, inoculum 10^4 dilution; MIC cutoff 200 mcg./ml.
S. marcescens = assay: as above; assay type: cell-based; settings: Serratia marcescens; 16 strains; Mueller-Hinton agar, inoculum 10^4 dilution; MIC cutoff 200 mcg./ml.; read-out: Geometric Mean MIC
D. pneumoniae = assay: as above; assay type: cell-based; settings: Streptococcus pneumoniae; 9 strains; Mueller-Hinton agar, inoculum 10^4 dilution; MIC cutoff 200 mcg./ml.
[6] = system: Enterobacter (Cephalosporinase +); assay: as above; assay type: cell-based; settings: 7 strains, Mueller-Hinton agar, inoculum 10^4 dilution, MIC cutoff 200 mcg./ml.
Klebsiella sp. = assay: as above; assay type: cell-based; settings: read-out: Geometric Mean MIC
[7] = system: 51 gram-positive and 96 gram-negative bacteria; assay: In vitro activity against 147 test organisms (overall comparison); assay type: cell-based; settings: compared with BB-S483 and BB-S469, respectively
Method: The MIC's were determined by the serial dilution method using Mueller-Hinton agar against 51 gram-positive and 96 gram-negative bacteria. The 147 test organisms were classified into 16 groups according to the genera and the types of antibiotic resistance, 5 groups for gram-positive and 11 for gram-negative bacteria.

SMILES: NCc1ccccc1CC(=O)N[C@@H]1C(=O)N2C(C(=O)O)=C(CSc3ccc4nn(CC(=O)O)c(=O)n4n3)CS[C@H]12 [BB-S469]
- MIC (E. coli (sensitive)): 0.3 µg/mL (≈ 0.512 µM)
- MIC (Enterobacter (sensitive)): 1 µg/mL (≈ 1.71 µM)
- MIC [1]: 1.2 µg/mL (≈ 2.05 µM)
- nephrotoxic potential (rabbits): little nephrotoxic potential
- MIC (S. aureus (sensitive)): 0.4 µg/mL (≈ 0.683 µM)
- MIC [2]: 11 µg/mL (≈ 18.8 µM)
- MIC (Proteus (indole-); 6 strains, Mueller-Hinton agar, inoculum 10^4 dilution, MIC cutoff 200 mcg./ml.): 0.6 µg/mL (≈ 1.02 µM)
- MIC [3]: 11 µg/mL (≈ 18.8 µM)
- MIC (Providencia sp.): 4.2 µg/mL (≈ 7.17 µM)
- MIC (Proteus (indole +)): 0.5 µg/mL (≈ 0.854 µM)
- MIC [4]: 30 µg/mL (≈ 51.2 µM)
- ED50 (S. aureus Smith): 0.19 mg/kg
- PD50 (S. aureus Smith): 0.16 mgm./kg. and 0.29 mgm./kg. and 0.2 mgm./kg.
- ED50 (E. coli Juhl): 0.19 mg/kg
- PD50 (E. coli Juhl): 0.24 mgm./kg. and 0.15 mgm./kg.
- MIC [5]: 0.7 µg/mL (≈ 1.2 µM)
- MIC (S. pyogenes): 0.05 µg/mL (≈ 0.0854 µM)
- MIC (S. marcescens): 130 µg/mL (≈ 222 µM)
- MIC (D. pneumoniae): 0.03 µg/mL (≈ 0.0512 µM)
- MIC [6]: 4.7 µg/mL (≈ 8.03 µM)
- MIC (Klebsiella sp.): 0.9 µg/mL (≈ 1.54 µM)

SMILES: CNCc1ccsc1CC(=O)N[C@@H]1C(=O)N2C(C(=O)O)=C(CSc3ccc4nn(CC(=O)O)c(=O)n4n3)CS[C@H]12 [BB-S472, 7-(3-Methylaminomethyl-2-thienylacetamido)-3-(2-carboxymethyl-2,3-dihydro-s-triazolo[4,3-b]pyridazin-3-on-6-ylthiomethyl)-3-cephem-4-carboxylic Acid]
- MIC (E. coli (sensitive); 13 strains, Mueller-Hinton agar, inoculum 10^4 dilution, MIC cutoff 200 mcg./ml.): 0.2 µg/mL (≈ 0.33 µM)
- MIC (Enterobacter (sensitive)): 1.3 µg/mL (≈ 2.15 µM)
- MIC [1]: 0.9 µg/mL (≈ 1.49 µM)
- MIC (S. aureus (sensitive)): 0.4 µg/mL (≈ 0.66 µM)
- MIC [2]: 8.3 µg/mL (≈ 13.7 µM)
- MIC (Proteus (indole-)): 0.3 µg/mL (≈ 0.495 µM)
- MIC [3]: 15 µg/mL (≈ 24.8 µM)
- MIC (Providencia sp.): 4.8 µg/mL (≈ 7.92 µM)
- MIC (Proteus (indole +)): 0.3 µg/mL (≈ 0.495 µM)
- MIC [4]: 58 µg/mL (≈ 95.8 µM)
- ED50 (S. aureus Smith): 0.12 mg/kg
- ED50 (E. coli Juhl): 0.19 mg/kg
- MIC [5]: 0.4 µg/mL (≈ 0.66 µM)
- MIC (S. pyogenes): 0.05 µg/mL (≈ 0.0826 µM)
- MIC (S. marcescens): 200 µg/mL (≈ 330 µM)
- MIC (D. pneumoniae): 0.05 µg/mL (≈ 0.0826 µM)
- overall in vitro activity vs. non-N-methylated analogs [7]: better overall activity than their non-N-methylated analogs
- MIC [6]: 3.2 µg/mL (≈ 5.28 µM)
- MIC (Klebsiella sp.; 12 strains, Mueller-Hinton agar, inoculum 10^4 dilution, MIC cutoff 200 mcg./ml.): 0.8 µg/mL (≈ 1.32 µM)

— US4198506A, “2-Carboxyalkyl-2,3-dihydro-6-mercapto-s-triazolo[4,3-b]-pyridazin-3-ones” (Bristol-Myers Company, priority 1979, dated 1980)
